# US7700592B2, “α2C adrenoreceptor agonists” (Schering Corporation, priority 2005, dated 2010)
# Biological target: T1, α2C receptor (Homo sapiens, UniProt P18825)
# T1 sequence (P18825 1-462): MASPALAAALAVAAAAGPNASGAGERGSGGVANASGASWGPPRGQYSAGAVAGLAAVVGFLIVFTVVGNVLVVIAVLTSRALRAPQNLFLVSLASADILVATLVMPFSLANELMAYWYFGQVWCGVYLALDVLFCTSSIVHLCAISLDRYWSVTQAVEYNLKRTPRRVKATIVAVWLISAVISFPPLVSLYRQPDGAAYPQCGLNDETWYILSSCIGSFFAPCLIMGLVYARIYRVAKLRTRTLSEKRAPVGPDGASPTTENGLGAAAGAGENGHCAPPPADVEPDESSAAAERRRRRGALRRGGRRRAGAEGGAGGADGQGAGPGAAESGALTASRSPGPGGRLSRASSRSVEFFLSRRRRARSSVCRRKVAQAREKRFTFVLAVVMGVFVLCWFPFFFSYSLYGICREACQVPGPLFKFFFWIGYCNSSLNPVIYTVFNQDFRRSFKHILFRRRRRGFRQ
# Assay: GTPγS assay, efficacy agonist activity (Emax) for α2C
# Format: biochemical
# Settings: active agonist = efficacy at α2C ≧30% Emax; functionally selective = additionally efficacy at α2A ≦30% Emax (GTPγS assay)
# Source text: For the purposes of this present invention, a compound is defined to be an active agonist of the α2C receptor subtype if the compound's efficacy at the α2C receptor is ≧30% Emax (GTPγS assay). A compound is a functionally selective agonist of the α2C receptor subtype over the α2A receptor subtype if the compound's efficacy at the α2C receptor is ≧30% Emax (GTPγS assay) and its efficacy at the α2A receptor is ≦30% Emax (GTPγS assay).
# Efficacy agonist activity values (Emax, GTPγS assay) for α2C were determined by following the general procedure detailed by Umland et al (“Receptor reserve analysis of the human α2c-adrenoceptor using [^35S]GTPγS and cAMP functional assays” European Journal of Pharmacology 2001, 411, 211-221). For the purposes of the present invention, a compound is defined to be an active agonist of the α2C receptor subtype if the compound's efficacy at the α2C receptor is ≧30% Emax (GTPγS assay). A compound is a functionally selective agonist of the α2C receptor subtype over the α2A receptor subtype if the compound's efficacy at the α2C receptor is […] Emax (GTPγS assay) and its efficacy at the α2A receptor is ≦30% Emax (GTPγS assay).
row,SMILES,"Efficacy agonist activity (Emax, GTPγS assay) for α2C: evaluated as active or functionally selective agonist"
1,c1ccc2c(c1)OCCN2Cc1c[nH]cn1 [Compound 1],active or functionally selective agonists of the α2C receptor subtype
2,O=[N+]([O-])c1ccc2c(c1)N(Cc1c[nH]cn1)CCO2 [Compound 3D],active or functionally selective agonists of the α2C receptor subtype
3,Nc1ccc2c(c1)N(Cc1c[nH]cn1)CCO2 [Compound 3E],active or functionally selective agonists of the α2C receptor subtype
4,COC(=O)Nc1ccc2c(c1)N(Cc1c[nH]cn1)CCO2 [Compound 3],active or functionally selective agonists of the α2C receptor subtype
5,CNC(=O)Nc1ccc2c(c1)N(Cc1c[nH]cn1)CCO2 [Compound 5],active or functionally selective agonists of the α2C receptor subtype
6,COC(=O)N(C)c1ccc2c(c1)N(Cc1c[nH]cn1)CCO2 [Compound 6E],active or functionally selective agonists of the α2C receptor subtype
7,CNC(=O)N(C)c1ccc2c(c1)N(Cc1c[nH]cn1)CCO2 [Compound 6],active or functionally selective agonists of the α2C receptor subtype
8,CCNC(=O)N(C)c1ccc2c(c1)N(Cc1c[nH]cn1)CCO2 [Compound 7],active or functionally selective agonists of the α2C receptor subtype
9,CCOC(=O)N(C)c1ccc2c(c1)N(Cc1c[nH]cn1)CCO2 [Compound 8],active or functionally selective agonists of the α2C receptor subtype
10,N#Cc1ccc2c(c1)N(Cc1c[nH]cn1)CCO2 [Compound 12],active or functionally selective agonists of the α2C receptor subtype
11,N=C(N)c1ccc2c(c1)N(Cc1c[nH]cn1)CCO2 [Compound 13],active or functionally selective agonists of the α2C receptor subtype
12,CSc1ccc2c(c1)N(Cc1c[nH]cn1)CCO2 [Compound 14B],active or functionally selective agonists of the α2C receptor subtype
13,CS(=O)(=O)c1ccc2c(c1)N(Cc1c[nH]cn1)CCO2 [Compound 14],active or functionally selective agonists of the α2C receptor subtype
14,c1c[nH]c(-c2ccc3c(c2)N(Cc2c[nH]cn2)CCO3)c1 [Compound 15],active or functionally selective agonists of the α2C receptor subtype
15,O=[N+]([O-])c1cc(F)c2c(c1)N(Cc1c[nH]cn1)CCO2 [Compound 19D],active or functionally selective agonists of the α2C receptor subtype
16,COC(=O)Nc1cc(F)c2c(c1)N(Cc1c[nH]cn1)CCO2 [Compound 19],active or functionally selective agonists of the α2C receptor subtype
17,COC(=O)Nc1cc(Cl)c2c(c1)N(Cc1c[nH]cn1)CCO2 [Compound 20],active or functionally selective agonists of the α2C receptor subtype
18,COC(=O)Nc1cc2c(cc1F)OCCN2Cc1c[nH]cn1 [Compound 21],active or functionally selective agonists of the α2C receptor subtype
19,O=[N+]([O-])c1ccc2c(n1)N(Cc1c[nH]cn1)CCO2 [Compound 22],active or functionally selective agonists of the α2C receptor subtype
20,Nc1ccc2c(c1)N(Cc1c[nH]cn1)CCS2 [Compound 24D],active or functionally selective agonists of the α2C receptor subtype
21,COC(=O)Nc1ccc2c(c1)N(Cc1c[nH]cn1)CCS2 [Compound 24],active or functionally selective agonists of the α2C receptor subtype

row,SMILES,"Efficacy agonist activity (Emax, GTPγS assay) for α2C: evaluated as active or functionally selective agonist"
1,c1ccc2c(c1)SCCN2Cc1c[nH]cn1 [Compound 25B],active or functionally selective agonists of the α2C receptor subtype
2,c1ccc2c(c1)NCCN2Cc1c[nH]cn1 [Compound 26A],active or functionally selective agonists of the α2C receptor subtype
3,COC(=O)N1CCN(Cc2c[nH]cn2)c2ccccc21 [Compound 26B],active or functionally selective agonists of the α2C receptor subtype
4,CN1CCN(Cc2c[nH]cn2)c2ccccc21 [Compound 26],active or functionally selective agonists of the α2C receptor subtype
5,CC(=O)N1CCN(Cc2c[nH]cn2)c2ccccc21 [Compound 27E],active or functionally selective agonists of the α2C receptor subtype
6,O=[N+]([O-])c1ccc2c(c1)N(Cc1c[nH]cn1)CCCO2 [Compound 28D],active or functionally selective agonists of the α2C receptor subtype
7,COC(=O)Nc1ccc2c(c1)N(Cc1c[nH]cn1)CCCO2 [Compound 28],active or functionally selective agonists of the α2C receptor subtype
8,CCOC(=O)Cc1ccc2c(c1)N(Cc1c[nH]cn1)CCO2 [Compound 29],active or functionally selective agonists of the α2C receptor subtype
9,O=C(Cc1ccc2c(c1)N(Cc1c[nH]cn1)CCO2)NCc1ccccc1 [Compound 30],active or functionally selective agonists of the α2C receptor subtype
10,O=[N+]([O-])c1ccc2c(c1)N(CCc1c[nH]cn1)CCO2 [Compound 37],active or functionally selective agonists of the α2C receptor subtype
11,CCN(C(=O)NC)c1ccc2c(c1)N(Cc1c[nH]cn1)CCO2 [Compound 38],active or functionally selective agonists of the α2C receptor subtype
12,CNC(=O)N(c1ccc2c(c1)N(Cc1c[nH]cn1)CCO2)C(C)C [Compound 46],active or functionally selective agonists of the α2C receptor subtype
13,CNC(=O)Nc1ccc2c(n1)N(Cc1c[nH]cn1)CCO2 [Compound 51],active or functionally selective agonists of the α2C receptor subtype
14,CCN(C(=O)OC)c1ccc2c(n1)N(Cc1c[nH]cn1)CCO2 [Compound 53],active or functionally selective agonists of the α2C receptor subtype
15,Brc1ccc2c(n1)N(Cc1c[nH]cn1)CCO2 [Compound 54],active or functionally selective agonists of the α2C receptor subtype
16,N#Cc1ccc2c(n1)N(Cc1c[nH]cn1)CCO2 [Compound 55],active or functionally selective agonists of the α2C receptor subtype
17,COC(=O)Nc1cc(O)c2c(c1)N(Cc1c[nH]cn1)CCO2 [Compound 57],active or functionally selective agonists of the α2C receptor subtype
18,CNC(=O)N(C)c1ccc2c(c1)N(CCc1c[nH]cn1)CCO2 [Compound 58],active or functionally selective agonists of the α2C receptor subtype
19,CCN(C(=O)OCc1ccnc(N)c1)c1ccc2c(c1)N(Cc1c[nH]cn1)CCO2 [Compound 63],active or functionally selective agonists of the α2C receptor subtype
20,CCN(C(=O)n1ccnc1)c1ccc2c(c1)N(Cc1c[nH]cn1)CCO2 [Compound 64A],active or functionally selective agonists of the α2C receptor subtype
21,CCN(C(=O)OCc1ccccn1)c1ccc2c(c1)N(Cc1c[nH]cn1)CCO2 [Compound 64],active or functionally selective agonists of the α2C receptor subtype
